Paper PMC7699745, “The Search for New Anticonvulsants in a Group of (2,5-Dioxopyrrolidin-1-yl)(phenyl)Acetamides with Hybrid Structure—Synthesis and In Vivo/In Vitro Studies” (International Journal of Molecular Sciences, 2020)
Where two headings read alike, the source gives them in different places.

How the values were obtained:
[1] = test system: formalin-induced nociceptive response, mice; experiment: Formalin test of tonic pain; format: in vivo; settings: for ED50: Mus musculus, ip, i.p. 30 min before test
Procedure: AEDs are also commonly used in the treatment of neuropathic pain and other central pain conditions. Therefore, with an aim of further pharmacological characterization of compounds described herein, we decided to study their antinociceptive properties in the in vivo assays. […] At first, both aforementioned compounds were tested in the formalin-induced tonic pain model, which is recognized as a valuable screening tool. In this test, the injection of formalin into the plantar surface of the mouse paw produces specific behaviors like paw lifting, flinching, and licking. […] Moreover, it has been reported that formalin induces pathological changes that resemble those observed in nerve injury and neuropathic pain [24]. Thus, this test has been successfully used to assess the analgesic efficacy of a variety of compounds such as opioids, nonsteroidal anti-inflammatory drugs (NSAIDs), corticosteroids, and N-methyl-D-aspartate (NMDA) receptor antagonists, as well as AEDs such as carbamazepine, topiramate, or gabapentin [26, 27].
As mentioned above, we investigated the analgesic properties of two of the most promising and interesting compounds: 4 and 30.
The experimental groups consisted of 6–12 adult male Albino Swiss mice (CD-1, 18–25 g). Each animal was tested only once. Immediately after the assay, the animals were sacrificed by cervical dislocation. Behavioral measurements were observed by trained observers. The in vivo antinociceptive assays were in accordance with Polish regulations and European Union Directive of 22 September 2010 (2010/63/EU). All procedures were carried out according to the rules of the International Council on Laboratory Animal Science (ICLAS) and were approved by the Local Ethical Committee in Cracow, Poland (approval No 104/2015, 111/2016, and 179/2017). The tested substances were suspended in 1% aqueous solution of Tween-80 and were injected i.p. 30 min prior to the test. Control group animals (negative control) were administered with an appropriate amount of vehicle (Tween-80, 1% aqueous solution, i.p.) 30 min prior to the test.
(§1) The experimental in vivo procedures were previously reported for the formalin test; compounds 4 and 30 were tested in three doses—40, 80, 120 mg/kg (4), and 20, 40, 80 mg/kg (30). […] The in vivo procedure for the model of capsaicin-induced nociception was previously reported; the animals were pretreated with vehicle (10 mL/kg, negative control) and the dose–response of investigated compounds was evaluated at 40, 80, 120 mg/kg (4), and 20, 40, 80 mg/kg (30). […]
Data are presented as means ± standard error of the mean (SEM). […] Statistically significant differences between groups were calculated using one-way analysis of variance (ANOVA) and the post hoc Dunnett’s multiple comparison test or two-way analysis of variance (ANOVA). […]

[2] = test system: capsaicin-induced nociceptive response, mice; experiment: Capsaicin-induced pain model; format: in vivo
Source text: Capsaicin activates C polymodal fibers and enhances their firing, which contributes to subsequent hyperalgesia. The molecular mechanism of action of capsaicin is the activation of the nonselective cation channel, transient receptor potential vanilloid-1 (TRPV1), which is localized on nociceptive free nerve endings. That induces the release of proinflammatory neuropeptides such as calcitonin gene-related peptide (CGRP), vasoactive intestinal peptide (VIP), and substance P (SP). The phenomenon of the induction of tissue inflammation by the peripheral nervous system is called neurogenic inflammation, and it is involved in the development of inflammatory and neuropathic pain. AEDs such as gabapentin, topiramate, or lamotrigine decrease capsaicin-induced nocifensive behavior [25].
The experimental groups consisted of 6–12 adult male Albino Swiss mice (CD-1, 18–25 g). Each animal was tested only once. […]
as §1

[3] = biological target: T1, GABA-A receptor (α1,β2,γ2) (Homo sapiens, UniProt P14867+P47870); experiment: Radioligand binding, GABA-A receptor; set-up: dose or concentration left out as unconfirmed; settings: rat cerebral cortex; read-out: % Inhibition of Control Specific Binding, GABA-A Receptor (α1,β2,γ2) (Agonist Radioligand)
T1 construct: Eurofins (Poitiers, France), contract assay
T1 sequence (P14867 28-456): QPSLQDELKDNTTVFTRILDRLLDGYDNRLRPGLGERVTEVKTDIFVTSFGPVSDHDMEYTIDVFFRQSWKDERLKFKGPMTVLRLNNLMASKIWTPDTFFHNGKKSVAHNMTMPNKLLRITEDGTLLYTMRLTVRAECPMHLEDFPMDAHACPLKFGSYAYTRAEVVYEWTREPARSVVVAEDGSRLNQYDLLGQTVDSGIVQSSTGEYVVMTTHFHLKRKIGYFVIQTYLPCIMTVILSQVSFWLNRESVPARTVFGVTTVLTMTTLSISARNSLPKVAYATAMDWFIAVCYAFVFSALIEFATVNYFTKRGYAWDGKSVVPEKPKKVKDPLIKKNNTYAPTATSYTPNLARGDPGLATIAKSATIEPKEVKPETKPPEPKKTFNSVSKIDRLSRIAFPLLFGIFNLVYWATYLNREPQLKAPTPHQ
T1 sequence (P47870 25-512 limits assumed): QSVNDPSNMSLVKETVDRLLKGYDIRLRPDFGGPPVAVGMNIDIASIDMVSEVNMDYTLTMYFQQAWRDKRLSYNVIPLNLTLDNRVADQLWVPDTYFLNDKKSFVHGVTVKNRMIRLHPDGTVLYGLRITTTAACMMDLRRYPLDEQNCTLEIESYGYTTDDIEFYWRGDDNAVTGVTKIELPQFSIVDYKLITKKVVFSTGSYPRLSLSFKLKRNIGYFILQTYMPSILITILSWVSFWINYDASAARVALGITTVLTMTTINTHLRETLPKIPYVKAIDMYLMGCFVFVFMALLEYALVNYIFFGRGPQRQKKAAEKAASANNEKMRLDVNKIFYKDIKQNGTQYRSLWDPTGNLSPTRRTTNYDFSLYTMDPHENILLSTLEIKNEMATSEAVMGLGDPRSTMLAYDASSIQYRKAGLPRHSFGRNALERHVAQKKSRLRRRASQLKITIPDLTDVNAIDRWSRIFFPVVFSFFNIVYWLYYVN
T1 sequence (P18507 40-475 partner): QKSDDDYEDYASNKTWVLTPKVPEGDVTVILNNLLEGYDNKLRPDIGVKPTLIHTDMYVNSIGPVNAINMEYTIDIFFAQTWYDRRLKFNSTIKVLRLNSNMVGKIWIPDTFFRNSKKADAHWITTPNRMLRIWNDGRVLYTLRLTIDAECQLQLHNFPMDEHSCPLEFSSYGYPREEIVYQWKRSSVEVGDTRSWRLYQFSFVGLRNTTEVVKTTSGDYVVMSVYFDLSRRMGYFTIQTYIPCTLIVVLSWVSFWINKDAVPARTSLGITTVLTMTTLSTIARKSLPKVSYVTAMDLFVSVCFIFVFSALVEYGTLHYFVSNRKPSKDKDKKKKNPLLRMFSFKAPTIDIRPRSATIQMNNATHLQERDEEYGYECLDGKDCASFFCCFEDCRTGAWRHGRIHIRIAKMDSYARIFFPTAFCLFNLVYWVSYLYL
Procedure: (§2) Taking into consideration the structural similarities of molecules described in the current manuscript with their chemical prototypes AS-1 and DK-1, the binding studies toward aforementioned molecular targets were performed commercially for several active substances from each subseries (3, 4, 21, 24, 25, 27, 29, and 30). Furthermore, we also tested two other and well-known targets for AEDs, namely, the Cav2.2 (N-type) calcium channel and gamma-aminobutyric acid (GABA)-A receptor. With the aim of excluding potentially dangerous proarrhythmic properties for each compound, their interaction with the potassium (hERG) channel was also tested.
(§3) Binding studies were carried out commercially in Eurofines Laboratories (Poitiers, France). The functional assays were performed in Eurofins Panlabs Discovery Services Taiwan, Ltd. (New Taipei City, Taiwan). All procedures are described elsewhere (for details, see Table S4 in Supplementary Materials).
(§4) Binding studies were carried out commercially in Eurofines Laboratories (Poitiers, France). The
(§5) functional assays were performed in Eurofins Panlabs Discovery Services Taiwan, Ltd. (New Taipei
(§6) City, Taiwan). All procedures are described elsewhere (Table S4).
(§7) Table S4. In vitro binding and functional assays.
(§8) GABA-A receptor (α1,β2,γ2)
(§9) Potassium channel (hERG) 14
(§10) Cav1.2 (h) calcium ion channel cell based antagonist calcium flux assay 16,17

Potassium channel (hERG) = biological target: T2, Potassium channel (hERG) (Homo sapiens, UniProt Q12809); experiment: Binding, potassium channel (hERG); settings: 100 µM; human recombinant (HEK-293 cells)
T2 construct: Eurofins (Poitiers, France), contract assay
T2 sequence (Q12809 whole entry): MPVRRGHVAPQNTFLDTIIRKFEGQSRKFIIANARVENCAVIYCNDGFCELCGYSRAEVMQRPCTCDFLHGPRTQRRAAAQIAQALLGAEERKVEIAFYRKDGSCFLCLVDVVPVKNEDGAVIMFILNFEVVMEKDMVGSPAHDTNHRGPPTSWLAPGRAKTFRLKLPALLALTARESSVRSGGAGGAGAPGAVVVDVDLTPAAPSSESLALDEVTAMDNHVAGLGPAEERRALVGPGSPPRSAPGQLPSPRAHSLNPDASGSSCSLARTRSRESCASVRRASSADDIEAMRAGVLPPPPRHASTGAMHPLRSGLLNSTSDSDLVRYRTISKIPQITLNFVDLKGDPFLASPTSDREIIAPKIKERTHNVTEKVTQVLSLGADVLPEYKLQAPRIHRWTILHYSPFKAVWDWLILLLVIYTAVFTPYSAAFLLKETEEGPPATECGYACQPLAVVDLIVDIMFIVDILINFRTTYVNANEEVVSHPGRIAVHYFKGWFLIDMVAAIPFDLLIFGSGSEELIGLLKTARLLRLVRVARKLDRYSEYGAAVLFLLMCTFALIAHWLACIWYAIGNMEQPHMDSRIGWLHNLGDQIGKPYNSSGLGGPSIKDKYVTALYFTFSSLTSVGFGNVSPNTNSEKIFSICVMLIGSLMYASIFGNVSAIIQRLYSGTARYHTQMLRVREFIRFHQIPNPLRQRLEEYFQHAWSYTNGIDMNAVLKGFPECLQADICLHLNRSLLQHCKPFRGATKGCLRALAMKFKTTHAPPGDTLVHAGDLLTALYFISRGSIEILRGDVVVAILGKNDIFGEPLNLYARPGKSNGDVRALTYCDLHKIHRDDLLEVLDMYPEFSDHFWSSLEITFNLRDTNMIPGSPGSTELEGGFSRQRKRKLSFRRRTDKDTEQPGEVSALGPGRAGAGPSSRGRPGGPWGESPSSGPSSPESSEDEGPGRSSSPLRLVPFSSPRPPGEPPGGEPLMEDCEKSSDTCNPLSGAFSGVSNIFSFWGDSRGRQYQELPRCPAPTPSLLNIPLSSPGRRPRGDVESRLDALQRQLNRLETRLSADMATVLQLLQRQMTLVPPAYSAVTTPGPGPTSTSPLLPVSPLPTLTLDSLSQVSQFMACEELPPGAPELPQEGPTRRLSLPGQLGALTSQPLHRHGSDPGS
Procedure: as §2, §3, §4, §5, §6, §7, §8, §9, §10

[4] = biological target: T3, Cav1.2 (h) calcium ion channel (Homo sapiens, UniProt Q13936); experiment: Cav1.2 (h) cell-based antagonist calcium flux assay
T3 construct: host or cells: HEK-293
Procedure: as §3, §4, §5, §6
Table S4. In vitro binding and functional assays. […]
as §10

CYP3A4 = biological target: T4, CYP3A4 (Homo sapiens, UniProt P08684); experiment: Luminescent CYP3A4 P450-Glo assay; format: in vitro ADME; settings: 1 µM
T4 construct: purchased Promega (Madison, WI, USA)
T4 sequence (P08684 whole entry): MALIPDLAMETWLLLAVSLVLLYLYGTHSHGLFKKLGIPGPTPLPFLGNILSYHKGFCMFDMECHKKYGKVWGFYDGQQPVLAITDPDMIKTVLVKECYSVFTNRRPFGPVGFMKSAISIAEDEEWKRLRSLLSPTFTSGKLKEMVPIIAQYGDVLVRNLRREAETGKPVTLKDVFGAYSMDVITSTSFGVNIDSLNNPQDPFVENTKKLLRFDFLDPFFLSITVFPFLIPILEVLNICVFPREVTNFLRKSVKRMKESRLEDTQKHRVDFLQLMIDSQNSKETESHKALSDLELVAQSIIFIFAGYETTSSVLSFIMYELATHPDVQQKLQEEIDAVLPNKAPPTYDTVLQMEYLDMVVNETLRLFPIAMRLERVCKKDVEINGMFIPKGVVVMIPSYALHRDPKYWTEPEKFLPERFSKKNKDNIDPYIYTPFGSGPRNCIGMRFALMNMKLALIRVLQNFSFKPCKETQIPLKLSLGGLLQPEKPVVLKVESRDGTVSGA

hepatoma HepG2 cells = experiment: Hepatotoxicity, MTS cell viability assay; format: cell-based; settings: 100 µM, 72 h
Procedure: The hepatotoxicity assessment was done with use of hepatoma HepG2 cells, which were incubated for 72 h in the presence of 1–100 µM concentrations of 4, 24, and 30. The CellTiter 96® aqueous nonradioactive cell proliferation assay (MTS) purchased from Promega (Madison, WI, USA) was used for determination of cell viability. The absorbance was measured using a microplate reader EnSpire (PerkinElmer, Waltham, MA, USA) at 492 nm. The obtained results confirmed the safety of the investigated series.
These studies were performed on hepatoma HepG2 cells, according to a protocol reported previously

[5] = phase II 15–30 min, read-out: ED50, formalin test phase II

O=C(Nc1ccccc1F)C(c1ccccc1)N1C(=O)CCC1=O (stereo not shown) [Compound 4, 2-(2,5-Dioxopyrrolidin-1-yl)-N-(2-fluorophenyl)-2-phenylacetamide]
ED50 [1, 5]: 98.9 mg/kg | attenuation of nociceptive response, formalin test first phase ([1]; i.p., doses 40, 80, 120 mg/kg): statistically significant only at the highest dose of 120 mg/kg | attenuation of nociceptive response in capsaicin-induced pain ([2]; i.p., 120 mg/kg): 37.9% | inhibition [3]: 2.8% | % Inhibition of Control Specific Binding, Potassium Channel (hERG) (Potassium channel (hERG)): 2.3% | melting point: 106.6 to 107.1 °C

O=C(NCCc1cccc(OC(F)(F)F)c1)C(c1ccccc1)N1C(=O)CCC1=O (stereo not shown) [Compound 30, 2-(2,5-Dioxopyrrolidin-1-yl)-2-phenyl-N-(3-(trifluoromethoxy)phenethyl)acetamide]
ED50 ([1]; phase I 0–5 min, read-out: ED50, formalin test phase I): 21.5 mg/kg | ED50 [1, 5]: 24.8 mg/kg | ED50 ([2]; Mus musculus, ip, i.p. 30 min before test): 35.3 mg/kg | inhibition [3]: 0.3% | % Inhibition of Control Specific Binding, Potassium Channel (hERG) (Potassium channel (hERG)): 1.7% | antagonist properties in cell-based flux studies (Cav1.2) ([4]; 10 µM): moderate antagonist properties | inhibition at 10 µM ([4]; HEK293, human recombinant (HEK-293 cells), read-out: % Inhibition of Control Agonist Response, Cav1.2 (h) calcium flux): 49% | effect on CYP3A4 activity (CYP3A4): slightly inhibited CYP3A4 activity | effect on HepG2 cells viability (hepatoma HepG2 cells): statistically significant (p < 0.001) effect on cells viability | melting point: 113.3 to 114.2 °C
